Measured values as given in US20190083521A1, “COMBINATION THERAPY FOR TREATING CANCER” (Epizyme, Inc., priority 2014, published 2019).
Where two headings read alike, the source gives them in different places.

Tests used:
[1] = system: OCI-AML-4 (MLL-ENL) cells; assay: Example 7 primary screen: 300 nM EPZ-5676 pre-treatment, second compound 72 h, ATPLite, GI100 shift; type: cell-based; details: OCI-AML-4 (MLL-ENL); 300 nM EPZ-5676 pre-treatment vs DMSO
Method: (§1) Cells were split using EPZ-5676 or DMSO containing growth media and further incubated for an additional 3-day pre-treatment time. Cells were finally seeded in growth media containing EPZ-5676 or DMSO in 384-well plates at 500 cell/well density. Cells were then equilibrated in incubators for 24 hours before treatment with a second compound. Treated assay plates were incubated with a second compound for 72 hours. After this time, plates were developed for endpoint analysis using ATPLite to measure ATP content, which is used as an indicator of cell viability.
(§2) “N/D” means the GI100 of the second compound could not be determined for both conditions and “-” means not tested.
(§3) Growth Inhibition (GI) as a measure of cell viability: The cell viability of vehicle was measured at the time of dosing the second agent (T0) and after seventy-two hours (T72). A GI reading of 0% represents no growth inhibition—cells treated with test compound as compared to T72 vehicle signals were measured. […] A GI 200% represents complete death of all cells in the culture well. Compounds reaching an activity plateau of GI 200% are considered cytotoxic. GI is calculated by applying the following test and equation: […]

SKM-1 (non-MLLr) cells [2] = assay: Example 7 retest: EPZ-5676 pre-treatment, second compound 72 h, Cell Titer Glo, growth inhibition; type: cell-based, human; set-up: GI100: unit not given here; details: for Combination result with EPZ-5676, Retest: 300 nM EPZ-5676 pre-treatment vs DMSO
Method: (§4) Cells were then treated with a second compound for 72 hours. After this time, plates were developed for endpoint analysis using Cell Titer Glo to measure ATP content, which is used as an indicator of cell viability.
as §2
as §3, with “(T72).” for “(T72). A GI reading of 0% represents no growth inhibition—cells treated with test compound as compared to T72 vehicle signals were measured.”

MOLM-13 (MLL-AF9) cells [3] = assay: as above; type: cell-based, human; set-up: GI100: unit not given here; details: for GI50: Homo sapiens; for Combination result with EPZ-5676, Retest: 150 nM EPZ-5676 pre-treatment vs DMSO
Method: as §4, §2
as §3, with “(T72).” for “(T72). A GI reading of 0% represents no growth inhibition—cells treated with test compound as compared to T72 vehicle signals were measured.”

THP-1 (MLL-AF9) cells = assay: as above; type: cell-based; set-up: GI100: unit not given here; details: NRAS G12D
Method: as §1, with “96-well plates.” for “384-well plates at 500 cell/well density.”, “treated” for “equilibrated in incubators for 24 hours before treatment with a second compound. Treated assay plates were incubated”, “Cell Titer Glo” for “ATPLite”
as §2, §3

[4] = system: OCI-AML-4 (MLL-ENL) cells; assay: as above; type: cell-based; details: for Combination result with EPZ-5676, Retest: 300 nM EPZ-5676 pre-treatment vs DMSO
Method: as §4, §2
as §3, with “(T72).” for “(T72). A GI reading of 0% represents no growth inhibition—cells treated with test compound as compared to T72 vehicle signals were measured.”

ML-2 (MLL-AF6) cells = assay: as above; type: cell-based; set-up: GI100: unit not given here
Method: as §4, §2
as §3, with “(T72).” for “(T72). A GI reading of 0% represents no growth inhibition—cells treated with test compound as compared to T72 vehicle signals were measured.”

RS4-11 (MLL-AF4) cells = assay: as above; type: cell-based; set-up: GI100: unit not given here; details: for GI50: Homo sapiens
Method: as §4, §2
as §3, with “(T72).” for “(T72). A GI reading of 0% represents no growth inhibition—cells treated with test compound as compared to T72 vehicle signals were measured.”

SKM-1 (non-MLLr) cells [5] = assay: Example 7 primary screen: 300 nM EPZ-5676 pre-treatment, second compound 72 h, ATPLite, GI100 shift; type: cell-based, human; details: SKM-1 (non-MLLr); 300 nM EPZ-5676 pre-treatment vs DMSO
Method: as §1, §2, §3

MOLM-13 (MLL-AF9) cells [6] = assay: as above; type: cell-based, human; details: MOLM-13 (MLL-AF9); 300 nM EPZ-5676 pre-treatment vs DMSO
Method: as §1, §2, §3

[7] = SKM-1 (non-MLLr), KRAS K117N (homo)
[8] = SKM-1 (non-MLLr), KRAS K117N (homo), second compound, 72 h
[9] = MOLM-13 (MLL-AF9), Ras mutation status: None known, second compound, 72 h
[10] = MOLM-13 (MLL-AF9), Ras mutation status: None known
[11] = OCI-AML-4 (MLL-ENL), NRAS Q61R (het)
[12] = OCI-AML-4 (MLL-ENL), NRAS Q61R (het), second compound, 72 h
[13] = ML-2 (MLL-AF6), KRAS A146T (het), second compound, 72 h
[14] = RS4-11 (MLL-AF4), Ras mutation status: None known, second compound, 72 h

Row | SMILES | Combination result with EPZ-5676, Primary screen [1] | Combination result with EPZ-5676, Retest (SKM-1 (non-MLLr) cells [2]; SKM-1 (non-MLLr)) | Result (combination with EPZ-5676) (SKM-1 (non-MLLr) cells [2]; [7]) | GI50 (SKM-1 (non-MLLr) cells [2]; [8]) [µM] | GI50 (MOLM-13 (MLL-AF9) cells [3]; [9]) [µM] | Combination result with EPZ-5676, Retest (MOLM-13 (MLL-AF9) cells [3]; MOLM-13 (MLL-AF9)) | Result (combination with EPZ-5676) (MOLM-13 (MLL-AF9) cells [3]; [10]) | GI50 (THP-1 (MLL-AF9) cells) [µM] | Combination result with EPZ-5676, Retest ([4]; OCI-AML-4 (MLL-ENL)) | Result (combination with EPZ-5676) [4, 11] | GI50 [4, 12] [µM] | GI50 (ML-2 (MLL-AF6) cells; [13]) [µM] | GI50 (RS4-11 (MLL-AF4) cells; [14]) [µM] | Combination result with EPZ-5676, Primary screen (SKM-1 (non-MLLr) cells [5]) | Combination result with EPZ-5676, Primary screen (MOLM-13 (MLL-AF9) cells [6]) | further results
1 | CC(=O)Nc1cccc(-n2c(=O)n(C3CC3)c(=O)c3c(Nc4ccc(I)cc4F)n(C)c(=O)c(C)c32)c1 [Trametinib] | Synergy (considered synergistic if the GI100 (Growth inhibition 100) value of the second compound decreased by 2-fold or more when EPZ-5676 was added as compared to the DMSO control) | Synergy (considered synergistic if the GI100 (Growth inhibition 100) value of the second compound decreased by 2-fold or more when EPZ-5676 was added as compared to the DMSO control) | Synergy (considered synergistic if the GI100 (Growth inhibition 100) value of the second compound decreased by 2-fold or more when EPZ-5676 was added as compared to the DMSO control) | 0.001 | 0.01 | Synergy (considered synergistic if the GI100 (Growth inhibition 100) value of the second compound decreased by 2-fold or more when EPZ-5676 was added as compared to the DMSO control) | Synergy (considered synergistic if the GI100 (Growth inhibition 100) value of the second compound decreased by 2-fold or more when EPZ-5676 was added as compared to the DMSO control) | 0.002 | Synergy (considered synergistic if the GI100 (Growth inhibition 100) value of the second compound decreased by 2-fold or more when EPZ-5676 was added as compared to the DMSO control) | Synergy (considered synergistic if the GI100 (Growth inhibition 100) value of the second compound decreased by 2-fold or more when EPZ-5676 was added as compared to the DMSO control) | 0.002 | 0.001 | > 10 | Synergy (considered synergistic if the GI100 (Growth inhibition 100) value of the second compound decreased by 2-fold or more when EPZ-5676 was added as compared to the DMSO control) | Synergy (considered synergistic if the GI100 (Growth inhibition 100) value of the second compound decreased by 2-fold or more when EPZ-5676 was added as compared to the DMSO control) | GI100 (SKM-1 (non-MLLr) cells [2]): 0.004; GI100 (MOLM-13 (MLL-AF9) cells [3]): 0.03; GI100 [4]: 0.009; GI100 (ML-2 (MLL-AF6) cells): 0.001; Result (combination with EPZ-5676) (ML-2 (MLL-AF6) cells; ML-2 (MLL-AF6), KRAS A146T (het)): Synergy (considered synergistic if the GI100 (Growth inhibition 100) value of the second compound decreased by 2-fold or more when EPZ-5676 was added as compared to the DMSO control); GI100 (RS4-11 (MLL-AF4) cells): >10
2 | Cn1cnc2c(F)c(Nc3ccc(Br)cc3Cl)c(C(=O)NOCCO)cc21 [Selumetinib (AZD6244), Selumetinib] | Synergy (considered synergistic if the GI100 (Growth inhibition 100) value of the second compound decreased by 2-fold or more when EPZ-5676 was added as compared to the DMSO control) | Synergy (considered synergistic if the GI100 (Growth inhibition 100) value of the second compound decreased by 2-fold or more when EPZ-5676 was added as compared to the DMSO control) | Synergy (considered synergistic if the GI100 (Growth inhibition 100) value of the second compound decreased by 2-fold or more when EPZ-5676 was added as compared to the DMSO control) | 0.02 | 1.25 | Synergy (considered synergistic if the GI100 (Growth inhibition 100) value of the second compound decreased by 2-fold or more when EPZ-5676 was added as compared to the DMSO control) | Synergy (considered synergistic if the GI100 (Growth inhibition 100) value of the second compound decreased by 2-fold or more when EPZ-5676 was added as compared to the DMSO control) | 0.16 | Synergy (considered synergistic if the GI100 (Growth inhibition 100) value of the second compound decreased by 2-fold or more when EPZ-5676 was added as compared to the DMSO control) | Synergy (considered synergistic if the GI100 (Growth inhibition 100) value of the second compound decreased by 2-fold or more when EPZ-5676 was added as compared to the DMSO control) | 0.116 | 0.04 | > 10 | Synergy (considered synergistic if the GI100 (Growth inhibition 100) value of the second compound decreased by 2-fold or more when EPZ-5676 was added as compared to the DMSO control) | Synergy (considered synergistic if the GI100 (Growth inhibition 100) value of the second compound decreased by 2-fold or more when EPZ-5676 was added as compared to the DMSO control) | GI100 (SKM-1 (non-MLLr) cells [2]; [8]): 0.12; GI100 (MOLM-13 (MLL-AF9) cells [3]; [9]): 7.28; GI100 (THP-1 (MLL-AF9) cells): >10; GI100 [4, 12]: 3.169; GI100 (ML-2 (MLL-AF6) cells; [13]): 0.93; GI100 (RS4-11 (MLL-AF4) cells; [14]): >10
